Read-outs that look alike come from different tables or passages of the source.
Assays:
[1] = molecular target: T1, p75^NTR receptors (PC12 cells) (Rattus norvegicus, UniProt P07174); experiment: Basic screening assay: binding of 125I-BDNF to PC12 cells; conditions: read-out: BDNF Activity % Maximal Binding
T1 construct: endogenous in cells; host or cells: PC12 cells
T1 sequence (P07174 30-425): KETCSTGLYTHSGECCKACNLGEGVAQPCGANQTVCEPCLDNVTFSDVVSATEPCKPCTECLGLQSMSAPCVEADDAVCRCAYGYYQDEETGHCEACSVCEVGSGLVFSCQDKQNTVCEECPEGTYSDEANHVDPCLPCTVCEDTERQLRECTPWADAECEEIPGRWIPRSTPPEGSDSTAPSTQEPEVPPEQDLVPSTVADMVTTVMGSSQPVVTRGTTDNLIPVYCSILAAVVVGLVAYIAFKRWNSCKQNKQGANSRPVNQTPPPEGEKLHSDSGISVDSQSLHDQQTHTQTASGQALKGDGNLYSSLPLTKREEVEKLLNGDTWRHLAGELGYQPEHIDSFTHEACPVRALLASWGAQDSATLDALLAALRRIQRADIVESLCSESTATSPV
T1 sequence (P23560 129-247 partner): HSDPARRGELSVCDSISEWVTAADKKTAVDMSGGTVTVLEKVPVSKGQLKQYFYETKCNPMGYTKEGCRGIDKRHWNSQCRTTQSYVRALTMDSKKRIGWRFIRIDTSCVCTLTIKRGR
Method in brief: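 4×10^6 PC12 cells incubated 2 h at 4° C, rotating, with 0.5 nM ^125I-BDNF (final) and compound at 50 μM, in duplicate or more. Bound ligand separated through 10% glycerol by centrifugation and counted by gamma counter; specific binding is Bmax minus NSB; inhibitors followed up for EC50.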

[2] = test system: p75^NTR receptors (PC12 cells); experiment: Basic screening assay: binding of 125I-NGF to PC12 cells; conditions: test compound 50 μM, 0.5 nM 125I-NGF, PC12 cells, 2 h at 4° C., specific binding as percent of control
Method in brief: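 PC12 cells (4×10^6) incubated 2 h at 4° C with 0.5 nM 125I-NGF and test compound at 50 μM, rotating. Bound tracer pelleted through 10% glycerol and gamma-counted; specific binding expressed as percent of control after NSB subtraction.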

[3] = Table 1, test compound 50 μM, 0.5 nM 125I-BDNF, PC12 cells, 2 h at 4° C., specific binding as percent of control
[4] = Table 4, test compound 50 μM, 0.5 nM 125I-BDNF, PC12 cells, 2 h at 4° C., specific binding as percent of control
[5] = Table 2, test compound 50 μM, 0.5 nM 125I-BDNF, PC12 cells, 2 h at 4° C., specific binding as percent of control

Row | Compound | activity at 50 µM [1, 3] [%] | NGF Activity % Maximal Binding ([2]; Table 1) | activity at 50 µM [1, 4] [%] | NGF Activity % Maximal Binding ([2]; Table 4) | other results
1 | Cc1ccc(C(=O)O)cc1-c1ccc(/C=C2/NC(=O)NC2=O)o1 [Compound 22, 3-[5-(2,5-Dioxo-imidazolidin-4-ylidenemethyl)furan-2-yl]-4-methylbenzoic acid] | 0 to 10 | * (50 < *) | – | – | –
2 | O=C1NC(=S)NC(=O)C1=Cc1ccc(-c2ccc([N+](=O)[O-])cc2Cl)o1 [Compound 4, 5-[5-(2-Chloro-4-nitrophenyl)furan-2-ylmethylene]-2-thioxo-dihydro-pyrimidine-4,6-dione] | – | * (50 < *) | – | – | activity at 50 µM [1]: 0 to 10%
3 | Cc1cc([N+](=O)[O-])ccc1-c1ccc(C=C2NC(=S)NC2=O)o1 [Compound 94, 5-[5-(2-Methyl-4-nitrophenyl)furan-2-ylmethylene]-2-thioxo-imidazolidin-4-one] | – | – | > 50 | * (50 < *) | –
4 | Cc1c(C(=O)O)cccc1-c1ccc(/C=C2/NC(=O)N(c3cccc(Cl)c3)C2=O)o1 [Compound 130, 3-{5-[1-(3-Chlorophenyl)-2,5-dioxo-imidazolidin-4-ylidenemethyl]furan-2-yl}-2-methylbenzoic acid] | – | – | > 50 | * (50 < *) | –
5 | O=C1C(=Cc2ccc(-c3ccc([N+](=O)[O-])cc3)o2)SC(=S)N1c1ccc(O)cc1 [Compound 142, 3-(4-Hydroxyphenyl)-5-[5-(4-nitrophenyl)furan-2-ylmethylene]-2-thioxo-thiazolidin-4-one] | – | – | > 50 | * (50 < *) | –
6 | Cc1cc([N+](=O)[O-])ccc1-c1ccc(/C=C2\NC(=O)N(Cc3ccccc3F)C2=O)o1 [Compound 131, 3-(2-Fluorobenzyl)-5-[5-(2-methyl-4-nitrophenyl)furan-2-ylmethylene]-imidazolidine-2,4-dione] | – | – | > 50 | * (50 < *) | –
7 | COC(=O)CN1C(=O)S/C(=C/c2ccc(-c3ccc(C(=O)O)c(Cl)c3)o2)C1=O [Compound 67, 2-Chloro-4-[5-(3-methoxycarbonylmethyl-2,4-dioxo-thiazolidin-5-ylidenemethyl)furan-2-yl]benzoic acid] | – | – | – | – | activity at 50 µM [1, 5]: 0 to 10%; NGF Activity % Maximal Binding ([2]; Table 2): XX (30 < XX < 40)
8 | O=C1NC(=O)C(=Cc2ccc(-c3ccc(Cl)c(C(=O)O)c3)o2)C(=O)N1 [Compound 75, 2-Chloro-5-[5-(2,4,6-trioxo-tetrahydro-pyrimidin-5-ylidenemethyl)furan-2-yl]benzoic acid] | – | – | – | – | activity at 50 µM [1]: 0 to 10%; NGF Activity % Maximal Binding ([2]; Table 2): X (40 < X < 50)
9 | Cc1cccc(N2NC(=O)C(=Cc3ccc(-c4ccc(C(=O)O)cc4)o3)C2=O)c1 [Compound 82, 4-[5-(3,5-Dioxo-1-m-tolyl-pyrazolidin-4-ylidenemethyl)furan-2-yl]benzoic acid] | – | – | – | – | activity at 50 µM [1, 5]: 20 to 30%; NGF Activity % Maximal Binding ([2]; Table 2): X (40 < X < 50)
10 | O=C1C(=Cc2ccc(-c3cccc([N+](=O)[O-])c3)o2)SC(=S)N1CCS(=O)(=O)O [Compound 143, 2-{5-[5-(3-Nitrophenyl)furan-2-ylmethylene]-4-oxo-2-thioxo-thiazolidin-3-yl}-ethanesulfonic acid] | – | – | > 50 | * (50 < *) | –
11 | O=C1NC(=O)/C(=C\c2ccc(-c3ccc([N+](=O)[O-])cc3Cl)o2)S1 [Compound 33, 5-[5-(2-Chloro-4-nitrophenyl)furan-2-ylmethylene]-thiazolidine-2,4-dione] | 10 to 20 | * (50 < *) | – | – | –
12 | COc1ccc([N+](=O)[O-])cc1-c1ccc(/C=C2/NC(=O)N(c3ccccc3)C2=O)o1 [Compound 123, 5-[5-(2-Methoxy-5-nitrophenyl)furan-2-ylmethylene]-3-phenyl-imidazolidine-2,4-dione] | – | – | > 50 | * (50 < *) | –
13 | CCc1ccc(N2NC(=O)/C(=C/c3ccc(-c4ccc(S(N)(=O)=O)cc4)o3)C2=O)cc1 [Compound 104, 4-{5-[1-(4-Ethylphenyl)-3,5-dioxo-pyrazolidin-4-ylidenemethyl]furan-2-yl}benzenesulfonamide] | – | – | > 50 | * (50 < *) | –
14 | Cc1ccc(-c2ccc(/C=C3/SC(=S)N(CC(=O)O)C3=O)o2)cc1[N+](=O)[O-] [Compound 14, {5-[5-(4-Methyl-3-nitrophenyl)furan-2-ylmethylene]-4-oxo-2-thioxo-thiazolidin-3-yl}-acetic acid] | 0 to 10 | * (50 < *) | – | – | –
15 | COC(=O)C(C)N1C(=O)S/C(=C/c2ccc(-c3cc(C(=O)O)ccc3C)o2)C1=O (centres unmarked) [Compound 29, 3-{5-[3-(1-Methoxycarbonyl-ethyl)-2,4-dioxo-thiazolidin-5-ylidenemethyl]furan-2-yl}-4-methylbenzoic acid] | 10 to 20 | * (50 < *) | – | – | –
16 | Cc1cc([N+](=O)[O-])ccc1-c1ccc(C=C2SC(=O)NC2=O)o1 [Compound 92, 5-[5-(2-Methyl-4-nitrophenyl)furan-2-ylmethylene]-thiazolidine-2,4-dione] | – | – | > 50 | * (50 < *) | –
17 | O=C(O)CCCN1C(=O)C(=Cc2ccc(-c3ccc([N+](=O)[O-])cc3)o2)SC1=S [Compound 98, 4-{5-[5-(4-Nitrophenyl)furan-2-ylmethylene]-4-oxo-2-thioxo-thiazolidin-3-yl}-butyric acid] | – | – | > 50 | * (50 < *) | –
18 | CCOC(=O)CN1C(=O)S/C(=C\c2ccc(-c3ccc([N+](=O)[O-])cc3C)o2)C1=O [Compound 61, {5-[5-(2-Methyl-4-nitrophenyl)furan-2-ylmethylene]-2,4-dioxo-thiazolidin-3-yl}-acetic acid ethyl ester] | 40 to 50 | * (50 < *) | – | – | –
19 | COC(=O)CN1C(=O)S/C(=C\c2ccc(-c3ccc([N+](=O)[O-])cc3)o2)C1=O [Compound 50, {5-[5-(4-Nitrophenyl)furan-2-ylmethylene]-2,4-dioxo-thiazolidin-3-yl}-acetic acid methyl ester] | 30 to 40 | * (50 < *) | – | – | –
20 | Cc1cccc(N2NC(=O)C(=Cc3ccc(-c4ccc(S(N)(=O)=O)cc4)o3)C2=O)c1 [Compound 9, 4-[5-(3,5-Dioxo-1-m-tolyl-pyrazolidin-4-ylidenemethyl)furan-2-yl]benzenesulfonamide] | 0 to 10 | * (50 < *) | – | – | –
21 | COC(=O)c1cccc(-c2ccc(/C=C3/SC(=S)N(CC(=O)O)C3=O)o2)c1 [Compound 69, 3-[5-(3-Carboxymethyl-4-oxo-2-thioxo-thiazolidin-5-ylidenemethyl)furan-2-yl]benzoic acid methyl ester] | – | – | – | – | activity at 50 µM [1, 5]: 0 to 10%; NGF Activity % Maximal Binding ([2]; Table 2): XX (30 < XX < 40)
22 | CCCC(C(=O)O)N1C(=O)C(=Cc2ccc(-c3ccc([N+](=O)[O-])cc3)o2)SC1=S (centres unmarked) [Compound 52, 2-{5-[5-(4-Nitrophenyl)furan-2-ylmethylene]-4-oxo-2-thioxo-thiazolidin-3-yl}-pentanoic acid] | 30 to 40 | * (50 < *) | – | – | –
23 | O=C(O)c1ccc(-c2ccc(/C=C3/NC(=O)N(Cc4ccc(F)cc4)C3=O)o2)cc1 [Compound 126, 4-{5-[1-(4-Fluorobenzyl)-2,5-dioxo-imidazolidin-4-ylidenemethyl]furan-2-yl}benzoic acid] | – | – | > 50 | * (50 < *) | –
24 | O=C(O)c1cc(-c2ccc(/C=C3\NC(=O)N(Cc4ccc(F)cc4)C3=O)o2)ccc1Cl [Compound 28, 2-Chloro-5-{5-[1-(4-fluorobenzyl)-2,5-dioxo-imidazolidin-4-ylidenemethyl]furan-2-yl}benzoic acid] | 10 to 20 | * (50 < *) | – | – | –
25 | Cc1c(-c2ccc(C=C3C(=O)NC(=S)NC3=O)o2)ccc([N+](=O)[O-])c1C [Compound 71, 5-[5-(2,3-Dimethyl-4-nitrophenyl)furan-2-ylmethylene]-2-thioxo-dihydro-pyrimidine-4,6-dione] | – | – | – | – | activity at 50 µM [1]: 0 to 10%; NGF Activity % Maximal Binding ([2]; Table 2): X (40 < X < 50)

From patent US20050282840A1, “Methods of modulating neurotrophin-mediated activity” (PainCeptor Pharma Corporation, priority 2004, published 2005)
